Experimental data published in ChEMBL document CHEMBL1201862, “PubChem BioAssay data set” (2004).
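Dose response: 5 concentrations. Exposure: 48 h. Format: 96-well plates. Endpoint: linear interpolation; highest concentration if not reached. Abbreviation: GI50, concentration required for 50% inhibition of growth.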 Activity calls are given as the source filed them. No stated cut-off is given here; in the data, active = GI50 up to about 1.1 µM and inactive = higher.

Legend:
Assay in all cases: NCI anticancer screen, dose series, 48 h
RPMI-8226 = tested on: RPMI-8226
HCT-15 = tested on: HCT-15
DLD-1 = tested on: DLD-1
ACHN = tested on: ACHN
IGROV-1 = tested on: IGROV-1
NCI-H460 = tested on: NCI-H460
MOLT-4 = tested on: MOLT-4
A549 = tested on: A549
HT-29 = tested on: HT-29
TK-10 = tested on: TK-10
SK-MEL-28 = tested on: SK-MEL-28
UO-31 = tested on: UO-31
M14 = tested on: M14
NCI-H226 = tested on: NCI-H226
OVCAR-8 = tested on: OVCAR-8
UACC-62 = tested on: UACC-62
DU-145 = tested on: DU-145

For `CCN(CC)c1ccc(Cl)c2c1C(O)(C(C)C)C2(C)C` (stereo not given), the GI50 (RPMI-8226) was 13.2 µM (inactive), the GI50 (HCT-15) was 14.5 µM and the GI50 (DLD-1) was 17.4 µM (inactive). The GI50 (ACHN) was 17.4 µM (inactive), the GI50 (IGROV-1) was 14.7 µM (inactive) and the GI50 (NCI-H460) was 13.4 µM (inactive). For the same compound, the GI50 (MOLT-4) was 16.5 µM (inactive), the GI50 (A549) was 19.9 µM (inactive) and the GI50 (HT-29) was 11.8 µM (inactive). The GI50 (TK-10) was 16.6 µM (inactive), the GI50 (SK-MEL-28) was 22.4 µM (inactive) and the GI50 (UO-31) was 17.3 µM (inactive). For the same compound, the GI50 (M14) was 16.4 µM (inactive), the GI50 (NCI-H226) was 16.5 µM (inactive) and the GI50 (OVCAR-8) was 18.9 µM (inactive).
In the case of `CC(C)CC1CC2C(=O)N(c3ccccc3)C(=O)C2c2[nH]c3ccccc3c21` (stereo not given), the GI50 (RPMI-8226) is reported as 29.2 µM (inactive), the GI50 (HCT-15) is reported as 17.3 µM and the GI50 (DLD-1) is reported as 29 µM (inactive). The GI50 (ACHN) was 38 µM (inactive), the GI50 (IGROV-1) was 17.7 µM (inactive) and the GI50 (NCI-H460) was 29.2 µM (inactive). The GI50 (MOLT-4) was 17.9 µM (inactive), the GI50 (A549) was 22.4 µM (inactive) and the GI50 (HT-29) was 51.9 µM (inactive). For the same compound, the GI50 (UACC-62) was 12.4 µM (inactive), the GI50 (SK-MEL-28) was 27 µM (inactive) and the GI50 (UO-31) was 26.4 µM (inactive). The GI50 (M14) was 28.2 µM (inactive), the GI50 (NCI-H226) was 24.5 µM (inactive) and the GI50 (OVCAR-8) was 14.9 µM (inactive).
`C=C(CN(CC(=C)C(=O)c1ccccc1)C(C)(C)C)C(=O)c1ccccc1` was tested, and the GI50 (RPMI-8226) was 4.38 µM (inactive), the GI50 (DLD-1) was 2.9 µM (inactive) and the GI50 (ACHN) was 8.99 µM (inactive). For the same compound, the GI50 (DU-145) was 19.6 µM (inactive), the GI50 (IGROV-1) was 20.5 µM (inactive) and the GI50 (NCI-H460) was 20.6 µM (inactive). For the same compound, the GI50 (MOLT-4) was 2.49 µM (inactive), the GI50 (A549) was 28.4 µM (inactive) and the GI50 (HT-29) was 18.1 µM (inactive). For the same compound, the GI50 (TK-10) was 13.8 µM (inactive), the GI50 (UACC-62) was 17.2 µM (inactive) and the GI50 (SK-MEL-28) was 16.5 µM (inactive). For the same compound, the GI50 (UO-31) was 11.7 µM (inactive), the GI50 (M14) was 10.5 µM (inactive) and the GI50 (NCI-H226) was 24 µM (inactive). For the same compound, the GI50 (OVCAR-8) was 20.5 µM (inactive).
In the case of `CC/C(=C(\c1ccccc1)c1ccc(OCC[N+](C)(C)C)cc1)c1ccccc1` [TAMOXIFEN METHYL IODIDE], the GI50 (RPMI-8226) is reported as 9.29 µM (inactive), the GI50 (HCT-15) is reported as 17.7 µM and the GI50 (DLD-1) is reported as 15.6 µM (inactive). For the same compound, the GI50 (ACHN) was 17.5 µM (inactive), the GI50 (IGROV-1) was 8.81 µM (inactive) and the GI50 (NCI-H460) was 17.1 µM (inactive). For the same compound, the GI50 (MOLT-4) was 17.7 µM (inactive), the GI50 (A549) was 18.7 µM (inactive) and the GI50 (HT-29) was 14.6 µM (inactive). For the same compound, the GI50 (UACC-62) was 11 µM (inactive), the GI50 (SK-MEL-28) was 8.59 µM (inactive) and the GI50 (UO-31) was 21.1 µM (inactive). For the same compound, the GI50 (M14) was 14.7 µM (inactive), the GI50 (NCI-H226) was 10.2 µM (inactive) and the GI50 (OVCAR-8) was 15.3 µM (inactive).
`N#CC1(C#N)C2C=CC(c3coc4cccc2c34)C1(C#N)C#N` (stereo not given) was tested, and the GI50 (RPMI-8226) was 4.86 µM (inactive), the GI50 (HCT-15) was 7.08 µM and the GI50 (DLD-1) was 2.02 µM (inactive). For the same compound, the GI50 (ACHN) was 5.53 µM (inactive), the GI50 (IGROV-1) was 18.7 µM (inactive) and the GI50 (NCI-H460) was 19.4 µM (inactive). For the same compound, the GI50 (MOLT-4) was 1.67 µM (inactive), the GI50 (A549) was 17.9 µM (inactive) and the GI50 (HT-29) was 18.9 µM (inactive). For the same compound, the GI50 (TK-10) was 7.05 µM (inactive), the GI50 (UACC-62) was 10.2 µM (inactive) and the GI50 (SK-MEL-28) was 3.66 µM (inactive). The GI50 (UO-31) was 12.8 µM (inactive), the GI50 (M14) was 12.7 µM (inactive) and the GI50 (NCI-H226) was 19 µM (inactive). The GI50 (OVCAR-8) was 3.47 µM (inactive).
For `COc1ccc(C(C2=C(C)C(=O)c3ccccc3C2=O)c2ccc(C(C)C)cc(=O)c2O)cc1` (stereo not given), the GI50 (RPMI-8226) was 3.74 µM (inactive), the GI50 (HCT-15) was 2.58 µM and the GI50 (DLD-1) was 4.79 µM (inactive). The GI50 (ACHN) was 3.05 µM (inactive), the GI50 (IGROV-1) was 4.16 µM (inactive) and the GI50 (NCI-H460) was 3.78 µM (inactive). For the same compound, the GI50 (MOLT-4) was 3.47 µM (inactive), the GI50 (A549) was 3.55 µM (inactive) and the GI50 (HT-29) was 6.04 µM (inactive). The GI50 (UO-31) was 2.12 µM (inactive), the GI50 (M14) was 2.53 µM (inactive) and the GI50 (NCI-H226) was 1.7 µM (inactive). The GI50 (OVCAR-8) was 4.18 µM (inactive).
With `CCCCCCCCCCCCCCCC(=O)OCC1OC(N2C(=O)/C(=N\NC(N)=S)c3ccc([N+](=O)[O-])cc32)C(OC(C)=O)C1OC(C)=O` (stereo not given) the GI50 (RPMI-8226) was > 100 µM (inactive), the GI50 (HCT-15) was 86.1 µM and the GI50 (DLD-1) was 77.1 µM (inactive). For the same compound, the GI50 (ACHN) was 48.5 µM (inactive), the GI50 (IGROV-1) was > 100 µM (inactive) and the GI50 (NCI-H460) was > 100 µM (inactive). The GI50 (MOLT-4) was > 100 µM (inactive), the GI50 (A549) was 56.2 µM (inactive) and the GI50 (HT-29) was > 100 µM (inactive). For the same compound, the GI50 (TK-10) was > 100 µM (inactive), the GI50 (UACC-62) was 69.7 µM (inactive) and the GI50 (SK-MEL-28) was > 100 µM (inactive). The GI50 (M14) was 62.2 µM (inactive), the GI50 (NCI-H226) was > 100 µM (inactive) and the GI50 (OVCAR-8) was 52.1 µM (inactive).
`OC(c1ccccc1)(c1ccccc1)c1ccccn1` was tested, and the GI50 (RPMI-8226) was 95.5 µM (inactive), the GI50 (HCT-15) was > 100 µM and the GI50 (DLD-1) was > 100 µM (inactive). For the same compound, the GI50 (ACHN) was > 100 µM (inactive), the GI50 (IGROV-1) was > 100 µM (inactive) and the GI50 (NCI-H460) was > 100 µM (inactive). The GI50 (MOLT-4) was > 100 µM (inactive), the GI50 (A549) was > 100 µM (inactive) and the GI50 (HT-29) was > 100 µM (inactive). For the same compound, the GI50 (TK-10) was > 100 µM (inactive), the GI50 (UACC-62) was > 100 µM (inactive) and the GI50 (SK-MEL-28) was > 100 µM (inactive). The GI50 (UO-31) was > 100 µM (inactive), the GI50 (M14) was > 100 µM (inactive) and the GI50 (NCI-H226) was > 100 µM (inactive). The GI50 (OVCAR-8) was > 100 µM (inactive).
In the case of `COc1cc(/C=C/C(=O)c2sc(-n3nc(-c4ccccc4)cc3-c3ccccc3)nc2C)ccc1O`, the GI50 (RPMI-8226) is reported as > 100 µM (inactive), the GI50 (HCT-15) is reported as 28.5 µM and the GI50 (DLD-1) is reported as > 100 µM (inactive). The GI50 (ACHN) was > 100 µM (inactive), the GI50 (IGROV-1) was 94.6 µM (inactive) and the GI50 (NCI-H460) was > 100 µM (inactive). The GI50 (MOLT-4) was 17.5 µM (inactive), the GI50 (A549) was > 100 µM (inactive) and the GI50 (TK-10) was > 100 µM (inactive). For the same compound, the GI50 (UACC-62) was > 100 µM (inactive), the GI50 (SK-MEL-28) was > 100 µM (inactive) and the GI50 (UO-31) was > 100 µM (inactive). The GI50 (NCI-H226) was > 100 µM (inactive) and the GI50 (OVCAR-8) was > 100 µM (inactive).
